{"source": "ChEMBL document CHEMBL1149938", "about": "“New 7-aryl analogues of anthracyclines: Synthesis and cytotoxic activity of ()-7-(3,4,5-trimethoxyphenyl)-7-deoxyidarubicinone” (Bioorg Med Chem Lett, 1997)", "format_in_all_cases": "functional, cell-based", "key": {"P388": {"system": "P388", "test": "Compound was evaluated for the cytotoxicity against P-388 tumor cell line after 3 days of incubation", "conditions": "Mus musculus, P388, 72 h"}, "HT-29": {"system": "HT-29", "test": "Compound was evaluated for the cytotoxicity against HT-29 tumor cell line after 3 days of incubation", "conditions": "Homo sapiens, HT-29, 72 h"}, "SK-MEL-28": {"system": "SK-MEL-28", "test": "Compound was evaluated for the cytotoxicity against MEL-28 tumor cell line after 3 days of incubation", "conditions": "Homo sapiens, SK-MEL-28, 72 h"}, "A549": {"system": "A549", "test": "Compound was evaluated for the cytotoxicity against A-549 tumor cell line after 3 days of incubation", "conditions": "Homo sapiens, A549, 72 h"}}, "note": "pIC50: −log10 of the molar value.", "data": [{"smiles": "COc1cc([C@H]2C[C@](O)(C(C)=O)C[C@H]3C(=O)c4c(c(O)c5ccccc5c4O)C(=O)[C@@H]23)cc(OC)c1OC", "values": [{"measurement": "pIC50", "setting": "P388", "result": 5.30}, {"measurement": "pIC50", "setting": "HT-29", "result": 5.30}, {"measurement": "pIC50", "setting": "SK-MEL-28", "result": 5.30}, {"measurement": "pIC50", "setting": "A549", "result": 5.30}]}, {"smiles": "C#C[C@@]1(O)C[C@H](c2cc(OC)c(OC)c(OC)c2)[C@@H]2C(=O)c3c(c(O)c4ccccc4c3O)C(=O)[C@@H]2C1", "values": [{"measurement": "pIC50", "setting": "P388", "result": 6.30}, {"measurement": "pIC50", "setting": "HT-29", "result": 6.30}, {"measurement": "pIC50", "setting": "SK-MEL-28", "result": 6.30}, {"measurement": "pIC50", "setting": "A549", "result": 6.30}]}, {"smiles": "COc1cccc2c1C(=O)c1c(O)c3c(c(O)c1C2=O)C[C@@](O)(C(=O)CO)C[C@@H]3O[C@H]1C[C@H](N)[C@H](O)[C@H](C)O1", "note": "[DOXORUBICIN]", "values": [{"measurement": "pIC50", "setting": "P388", "result": 7.70}, {"measurement": "pIC50", "setting": "HT-29", "result": 7.70}, {"measurement": "pIC50", "setting": "SK-MEL-28", "result": 7.70}, {"measurement": "pIC50", "setting": "A549", "result": 7.70}]}, {"smiles": "COc1cc([C@H]2C[C@](O)(C(C)=O)Cc3c(O)c4c(c(O)c32)C(=O)c2ccccc2C4=O)cc(OC)c1OC", "values": [{"measurement": "pIC50", "setting": "P388", "result": "< 5.00"}, {"measurement": "pIC50", "setting": "HT-29", "result": "< 5.00"}, {"measurement": "pIC50", "setting": "SK-MEL-28", "result": "< 5.00"}, {"measurement": "pIC50", "setting": "A549", "result": "< 5.00"}]}, {"smiles": "COc1cc([C@H]2CC(=O)C[C@H]3C(=O)c4c(c(O)c5ccccc5c4O)C(=O)[C@@H]23)cc(OC)c1OC", "values": [{"measurement": "pIC50", "setting": "P388", "result": 5.30}, {"measurement": "pIC50", "setting": "HT-29", "result": 5.30}, {"measurement": "pIC50", "setting": "SK-MEL-28", "result": 5.30}, {"measurement": "pIC50", "setting": "A549", "result": 5.30}]}, {"smiles": "C#C[C@]1(O)Cc2c(O)c3c(c(O)c2[C@@H](c2cc(OC)c(OC)c(OC)c2)C1)C(=O)c1ccccc1C3=O", "values": [{"measurement": "pIC50", "setting": "P388", "result": "< 5.00"}, {"measurement": "pIC50", "setting": "HT-29", "result": "< 5.00"}, {"measurement": "pIC50", "setting": "SK-MEL-28", "result": "< 5.00"}, {"measurement": "pIC50", "setting": "A549", "result": "< 5.00"}]}]}
